The text below walks through data of US7846928B2, “Substituted pyrazolopyridines and salts thereof, pharmaceutical compositions comprising same, methods of preparing same and uses of same” (Bayer Schering Pharma AG, priority 2006, dated 2010).

The target in data set [1] is T1, Tie2 (Homo sapiens, UniProt Q02763). The data set is described as follows: Tie-2-Kinase HTRF-Assay without kinase preactivation (assay 2). The class given is biochemical. More on the design: fusion protein of GST and the intracellular domains of Tie-2; GST; made in house; host or cells: insect cells (Hi-5). The note with it: GST-Tie-2 without preactivation, 10 μM ATP; pIC50 = -log IC50 molar. From the text:
Tie2-inhibitory activity of compounds of the present invention was quantified employing two Tie2 HTRF assay as described in the following paragraphs.
A recombinant fusion protein of GST and the intracellular domains of Tie-2, expressed in insect cells (Hi-5) and purified by Glutathion-Sepharose affinity chromatography was used as kinase. Alternatively, commercially available GST-Tie2-fusion protein (Upstate Biotechnology, Dundee, Scotland) can be used As substrate for the kinase reaction the biotinylated peptide biotin-Ahx-EPKDDAYPLYSDFG (C-terminus in amid form) was used which can be purchased e.g. from the company Biosynthan GmbH (Berlin-Buch, Germany). Detection of phosphorylated product is achieved specifically by a trimeric detection complex consisting of the phosphorylated substrate, streptavidin-XLent (SA-XLent) which binds to biotin, and Europium Cryptate-labeled anti-phosphotyrosine antibody PT66 which binds to phosphorylated tyrosine.
Tie-2 (3.5 ng/measurement point) was incubated for 60 min at 22° C. in the presence of 10 μM adenosine-tri-phosphate (ATP) and 1 μM substrate peptide (biotin-Ahx-EPKDDAYPLYSDFG-NH2) with different concentrations of test compounds (0 μM and concentrations in the range 0.001-20 μM) in 5 μl assay buffer [50 mM Hepes/NaOH pH 7, 10 mM MgCl2, 0.5 mM MnCl2, 1.0 mM dithiothreitol, 0.01% NP40, protease inhibitor mixture (“Complete w/o EDTA” from Roche, 1 tablet per 2.5 ml), 1% (v/v) dimethylsulfoxide]. The reaction was stopped by the addition of 5 μl of an aqueous buffer (25 mM Hepes/NaOH pH 7.5, 0.28% (w/v) bovine serum albumin) containing EDTA (90 mM) and the HTRF (Homogeneous Time Resolved Fluorescence) detection reagents streptavidine-XLent (0.2 μM, from Cis Biointernational, Marcoule, France) and PT66-Eu-Chelate (0.3 ng/μl; a europium-chelate labelled anti-phospho-tyrosine antibody from Perkin Elmer).
The resulting mixture was incubated 1 h at 22° C. to allow the binding of the biotinylated phosphorylated peptide to the streptavidine-XLent and the PT66-Eu-Chelate. Subsequently the amount of phosphorylated substrate peptide was evaluated by measurement of the resonance energy transfer from the PT66-Eu-Chelate to the streptavidine-XLent. Therefore, the fluorescence emissions at 620 nm and 665 nm after excitation at 350 nm was measured in a HTRF reader, e.g. a Rubystar (BMG Labtechnologies, Offenburg, Germany) or a Viewlux (Perkin-Elmer). The ratio of the emissions at 665 nm and at […] was taken as the measure for the amount of phosphorylated substrate peptide. The data were normalised (enzyme reaction without inhibitor=0% inhibition, all other assay components but no enzyme=100% inhibition) and IC50 values were calculated by a 4 parameter fit using an inhouse software.
Target sequence in this assay (Q02763 770-1124 limits assumed): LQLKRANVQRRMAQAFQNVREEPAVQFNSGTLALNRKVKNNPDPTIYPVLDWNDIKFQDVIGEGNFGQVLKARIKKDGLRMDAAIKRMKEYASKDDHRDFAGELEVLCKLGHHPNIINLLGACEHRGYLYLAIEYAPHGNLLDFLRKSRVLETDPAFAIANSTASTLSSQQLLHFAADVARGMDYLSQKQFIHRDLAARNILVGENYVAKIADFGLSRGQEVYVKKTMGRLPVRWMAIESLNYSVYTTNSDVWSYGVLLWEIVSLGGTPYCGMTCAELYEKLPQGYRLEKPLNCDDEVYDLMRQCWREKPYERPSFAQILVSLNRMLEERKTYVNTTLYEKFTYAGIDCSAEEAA

Data set [2] concerns the target T1, Tie2. Nature of the data set: Tie2 ELISA assay (assay 1): cellular Tie2 autophosphorylation in Tie2-transfected CHO cells stimulated by angiopoietin-2. The settings on record: CHO Tie2/DHFR cells, Ang2 stimulated, Tie2 autophosphorylation sandwich-ELISA; pIC50 = -log IC50 molar; read-out: Tie 2 activity (assay 1). The class given is cell-based. More on the design: expressed in transfected cells; host or cells: CHO (DHFR-deficient), stably transfected: CHO Tie2/DHFR. How it is done: Cellular activity of compounds of the present invention as inhibitors of Tie2 kinase activity was measured employing a Tie2 ELISA assay as described in the following paragraphs. Herein CHO cell-cultures, which are stably transfected by known techniques with Tie2 using DHFR deficiency as selection marker, are stimulated by angiopoietin-2. The specific autophosphorylation of Tie2 receptors is quantified with a sandwich-ELISA using anti-Tie2 antibodies for catch and anti-phosphotyrosine antibodies coupled to HRP for detection.
• 96 well tissue culture plate, sterile, Greiner • 96 well FluoroNunc plate MaxiSorp Surface C, Nunc • 96 well plate polypropylene for compound dilution in DMSO • CHO Tie2/DHFR (transfected cells) • PBS−; PBS++, DMSO • MEM alpha Medium with Glutamax-I without Ribonucleosides and • Deoxyribonucleosides (Gibco #32561-029) • with 10% FCS after dialysis! and 1% PenStrep • Lysis buffer: 1 Tablet “Complete” protease inhibitor • 1 cap Vanadate (1 mL>40 mg/mL; working solution 2 mM) • ad 50 mL with Duschl-Puffer • pH 7.6 • Anti-Tie2-antibody 1:425 in Coating Buffer pH 9.6 • Stock solution: 1.275 mg/mL>working: 3 μg/mL • PBST: 2 bottles PBS(10×)+10 ml Tween, fill up with VE-water • RotiBlock 1:10 in VE-water • Anti-Phosphotyrosine HRP-Conjugated 1:10000 in 3% TopBlock • 3% TopBlock in PBST • BM Chemiluminescence ELISA Substrate (POD) • solution B1:100 solution A • SF9 cell culture medium • Ang2-Fc in SF9 cell culture medium Cell Experiment: • Dispense 5×10^4 cells/well/98 μL in 96 well tissue culture plate • Incubate at 37° C./5% CO2 • After 24 h add compounds according to desired concentrations • Add also to control and stimulated values without compounds 2 μL DMSO • And mix for a few min at room temperature • Add 100 μL Ang2-Fc to all wells except control, which receives insect medium • Incubate 20 min at 37° C. • Wash 3× with PBS++ • Add 100 μl Lysis buffer/well and shake a couple of min at room temperature • Store lysates at 20° C. before utilizing for the ELISA Performance of Sandwich-ELISA • Coat 96 well FluoroNunc Plate MaxiSorp Surface C with anti-Tie2 mAb • 1:425 in Coating buffer pH 9.6; 100 μL/well overnight at 4° C. • Wash 2× with PBST • Block plates with 250 μL/well RotiBlock 1:10 in VE-water • Incubate for 2 h at room temperature or overnight at 4° C. shaking • Wash 2× in PBST • Add thawed lysates to wells and incubate overnight shaking at 4° C. • Wash 2× with PBST • Add 100 μL/well anti-Phosphotyrosine HRP-Conjugated 1:10000 in 3% • TopBlock (3% TopBlock in PBST) and incubate overnight under shaking • Wash 6× with PBST • Add 100 μL/well BM Chemiluminescence ELISA Substrate (POD) • solutions 1 und 2 (1:100) • Determine luminescence with the LumiCount. Assay 2: Tie-2-Kinase HTRF-Assay without Kinase Preactivation
Target sequence in this assay (Q02763 23-1124): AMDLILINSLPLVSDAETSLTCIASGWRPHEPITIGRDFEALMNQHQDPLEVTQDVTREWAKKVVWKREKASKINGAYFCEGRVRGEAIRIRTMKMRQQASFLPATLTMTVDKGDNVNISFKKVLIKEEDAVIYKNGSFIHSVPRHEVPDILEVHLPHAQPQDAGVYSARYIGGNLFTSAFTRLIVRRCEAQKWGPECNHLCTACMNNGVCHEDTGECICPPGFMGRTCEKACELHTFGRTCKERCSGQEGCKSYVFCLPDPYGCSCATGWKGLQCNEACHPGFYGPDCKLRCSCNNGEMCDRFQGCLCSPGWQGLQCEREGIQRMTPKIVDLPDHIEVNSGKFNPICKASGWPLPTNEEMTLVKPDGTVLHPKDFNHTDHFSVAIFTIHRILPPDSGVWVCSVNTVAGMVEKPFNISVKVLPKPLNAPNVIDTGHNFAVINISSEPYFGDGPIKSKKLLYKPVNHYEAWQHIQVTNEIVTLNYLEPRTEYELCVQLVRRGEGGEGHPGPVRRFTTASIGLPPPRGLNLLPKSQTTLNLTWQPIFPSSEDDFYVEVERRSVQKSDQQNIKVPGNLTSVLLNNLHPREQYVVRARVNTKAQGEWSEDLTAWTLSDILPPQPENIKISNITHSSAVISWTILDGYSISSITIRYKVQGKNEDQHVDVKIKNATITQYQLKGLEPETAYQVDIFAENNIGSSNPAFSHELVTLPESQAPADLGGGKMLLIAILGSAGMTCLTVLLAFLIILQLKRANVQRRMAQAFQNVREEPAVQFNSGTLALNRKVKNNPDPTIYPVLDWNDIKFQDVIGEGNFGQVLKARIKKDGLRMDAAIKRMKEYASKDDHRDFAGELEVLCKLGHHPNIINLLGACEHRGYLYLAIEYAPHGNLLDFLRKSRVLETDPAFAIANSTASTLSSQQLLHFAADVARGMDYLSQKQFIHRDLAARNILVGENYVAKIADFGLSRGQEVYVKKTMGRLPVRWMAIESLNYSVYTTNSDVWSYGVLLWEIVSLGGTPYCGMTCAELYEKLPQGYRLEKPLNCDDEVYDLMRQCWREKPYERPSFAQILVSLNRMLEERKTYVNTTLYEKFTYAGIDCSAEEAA

One may read the melting point as the temperature, or range, at which the solid turns liquid.

SMILES strings stand for the structures.

As for `CC(C)c1cc(-c2ccc(NC(=O)Nc3cccc(C(F)(F)F)c3)cc2)c2cnn(CCCN3CCOCC3)c2n1` [1.25, 1-{4-[6-Isopropyl-1-(3-morpholin-4-yl-propyl)-1H-pyrazolo[3,4-b]pyridin-4-yl]-phenyl}-3-(3-trifluoromethyl-phenyl)-urea], the figures for the IC50 at Tie2 [1] and on Tie2 [2] were 1000 to 10000 nM and less than 501 nM, respectively.
For `Cn1ncc2c(-c3ccc(NC(=O)Nc4cccc(C(F)(F)F)c4)cc3)cc(C3(C(=O)N4CCCC4)CC3)nc21` [1.27, 1-(4-{1-Methyl-6-[1-(pyrrolidine-1-carbonyl)-cyclopropyl]-1H-pyrazolo[3,4-b]pyridin-4-yl}-phenyl)-3-(3-trifluoromethyl-phenyl)-urea], in that order: less than 501 nM and less than 501 nM.
As to `Cc1cc(-c2ccc(NC(=O)Nc3cc(C(F)(F)F)ccc3N3CCCC3)cc2)c2cnn(C)c2n1` [2.8, 1-[4-(1,6-Dimethyl-1H-pyrazolo[3,4-b]pyridin-4-yl)-phenyl]-3-(2-pyrrolidin-1-yl-5-trifluoromethyl-phenyl)-urea], the melting point turned out to be 236 °C.
